Laboratory results: article PMC9848300, “Discovery of novel enasidenib analogues targeting inhibition of mutant isocitrate dehydrogenase 2 as antileukaemic agents” (Journal of Enzyme Inhibition and Medicinal Chemistry, 2023)
Where two headings read alike, the source gives them in different places.

What was measured:
Assay type in all cases: cell-based
A549/ATCC = assay: NCI 60 antitumor screening (single dose); conditions: Homo sapiens; A549/ATCC (non-small cell lung cancer), single dose 10 μM; read-out: Growth inhibition percentage (GI %)
Outline: (§1)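 Values are GI% (100 − G%) from the NCI 60-line single-dose screen, compound at 10 μM.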

CAKI-1 = assay: NCI 60 antitumor screening (single dose); conditions: Homo sapiens
Outline: as §1

HCC-2998 = assay: NCI 60 antitumor screening (single dose); conditions: Homo sapiens; HCC-2998 (colon cancer), single dose 10 μM; read-out: Growth inhibition percentage (GI %)
Outline: (§2)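 Percent growth inhibition, calculated as 100 minus percent growth (G%) of treated cells, following a single 10 μM exposure in the NCI 60 human cancer cell screen; triplicate runs.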

HOP-62 = assay: NCI 60 antitumor screening (single dose); conditions: Homo sapiens; HOP-62 (non-small cell lung cancer), single dose 10 μM; read-out: Growth inhibition percentage (GI %)
Outline: as §2

HS 578T = assay: NCI 60 antitumor screening (single dose); conditions: Homo sapiens, read-out: Growth inhibition percentage (GI %)
Outline: as §1

KM 12 = assay: NCI 60 antitumor screening (single dose); conditions: Homo sapiens, KM12; KM 12 (colon cancer), single dose 10 μM; read-out: Growth inhibition percentage (GI %)
Outline: as §1

M14 = assay: NCI 60 antitumor screening (single dose); conditions: Homo sapiens
Outline: as §1

MCF7 = assay: NCI 60 antitumor screening (single dose); conditions: Homo sapiens
Outline: as §1

NCI-H226 = assay: NCI 60 antitumor screening (single dose); conditions: Homo sapiens; NCI-H226 (non-small cell lung cancer), single dose 10 μM; read-out: Growth inhibition percentage (GI %)
Outline: as §1

NCI-H23 = assay: NCI 60 antitumor screening (single dose); conditions: Homo sapiens; NCI-H23 (non-small cell lung cancer), single dose 10 μM; read-out: Growth inhibition percentage (GI %)
Outline: as §2

NCI-H322M = assay: NCI 60 antitumor screening (single dose); conditions: Homo sapiens; NCI-H322M (non-small cell lung cancer), single dose 10 μM; read-out: Growth inhibition percentage (GI %)
Outline: as §1

NCI-H522 = assay: NCI 60 antitumor screening (single dose); conditions: Homo sapiens; NCI-H522 (non-small cell lung cancer), single dose 10 μM; read-out: Growth inhibition percentage (GI %)
Outline: as §2

OVCAR-4 = assay: NCI 60 antitumor screening (single dose); conditions: Homo sapiens
Outline: as §1

OVCAR-5 = assay: NCI 60 antitumor screening (single dose); conditions: Homo sapiens
Outline: as §2

OVCAR-8 = assay: NCI 60 antitumor screening (single dose); conditions: Homo sapiens
Outline: as §1

PC-3 = assay: NCI 60 antitumor screening (single dose); conditions: Homo sapiens
Outline: as §1

SK-OV-3 = assay: NCI 60 antitumor screening (single dose); conditions: Homo sapiens
Outline: as §2

SNB-19 = assay: NCI 60 antitumor screening (single dose); conditions: Homo sapiens; SNB-19 (CNS cancer), single dose 10 μM; read-out: Growth inhibition percentage (GI %)
Outline: as §1

TK-10 = assay: NCI 60 antitumor screening (single dose); conditions: Homo sapiens
Outline: as §1

U251 = assay: NCI 60 antitumor screening (single dose); conditions: Homo sapiens, U-251; U251 (CNS cancer), single dose 10 μM; read-out: Growth inhibition percentage (GI %)
Outline: as §2

HCT-116 = assay: NCI 60 antitumor screening (single dose / five doses); conditions: Homo sapiens
SNB-75 = assay: as above; conditions: Homo sapiens
LOX IMVI = assay: as above; conditions: Homo sapiens, read-out: Growth inhibition percentage (GI %)
NCI/ADR-RES = assay: as above; conditions: Homo sapiens, read-out: Growth inhibition percentage (GI %)
DU-145 = assay: as above; conditions: Homo sapiens
BT-549 = assay: as above; conditions: Homo sapiens
T-47D = assay: as above; conditions: Homo sapiens, T47D, read-out: Growth inhibition percentage (GI %)
[1] = CAKI-1 (renal cancer), single dose 10 μM, read-out: Growth inhibition percentage (GI %)
[2] = HS 578T (breast cancer), single dose 10 μM
[3] = M14 (melanoma), single dose 10 μM, read-out: Growth inhibition percentage (GI %)
[4] = MCF7 (breast cancer), single dose 10 μM, read-out: Growth inhibition percentage (GI %)
[5] = OVCAR-4 (ovarian cancer), single dose 10 μM, read-out: Growth inhibition percentage (GI %)
[6] = OVCAR-5 (ovarian cancer), single dose 10 μM, read-out: Growth inhibition percentage (GI %)
[7] = OVCAR-8 (ovarian cancer), single dose 10 μM, read-out: Growth inhibition percentage (GI %)
[8] = PC-3 (prostate cancer), single dose 10 μM, read-out: Growth inhibition percentage (GI %)
[9] = SK-OV-3 (ovarian cancer), single dose 10 μM, read-out: Growth inhibition percentage (GI %)
[10] = TK-10 (renal cancer), single dose 10 μM, read-out: Growth inhibition percentage (GI %)
[11] = HCT-116 (colon cancer), single dose 10 μM, read-out: Growth inhibition percentage (GI %)
[12] = SNB-75 (CNS cancer), single dose 10 μM, read-out: Growth inhibition percentage (GI %)
[13] = LOX IMVI (melanoma), single dose 10 μM
[14] = NCI/ADR-RES (ovarian cancer), single dose 10 μM
[15] = DU-145 (prostate cancer), single dose 10 μM, read-out: Growth inhibition percentage (GI %)
[16] = BT-549 (breast cancer), single dose 10 μM, read-out: Growth inhibition percentage (GI %)
[17] = T-47D (breast cancer), single dose 10 μM

Compound	inhibition at 10 µM (A549/ATCC)	inhibition at 10 µM (HCC-2998)	inhibition at 10 µM (HOP-62)	inhibition at 10 µM (KM 12)	inhibition at 10 µM (NCI-H226)	inhibition at 10 µM (NCI-H23)	inhibition at 10 µM (NCI-H322M)	inhibition at 10 µM (NCI-H522)	inhibition at 10 µM (SNB-19)	inhibition at 10 µM (U251)	inhibition at 10 µM (CAKI-1; [1])	inhibition at 10 µM (HS 578T; [2])	inhibition at 10 µM (M14; [3])	inhibition at 10 µM (MCF7; [4])	inhibition at 10 µM (OVCAR-4; [5])	inhibition at 10 µM (OVCAR-5; [6])	inhibition at 10 µM (OVCAR-8; [7])	inhibition at 10 µM (PC-3; [8])	inhibition at 10 µM (SK-OV-3; [9])	inhibition at 10 µM (TK-10; [10])	further results
O=[N+]([O-])c1cccc(/C=N/Nc2nc(N/N=C/c3cccc([N+](=O)[O-])c3)nc(N3CCOCC3)n2)c1 [compound 6f, 2-(Morpholin-4-yl)-4,6-bis[(E)-2-[(3-nitrophenyl)methylidene]hydrazin-1-yl]-1,3,5-triazine]	28.6%	-2.57%	26.4%	15%	26.4%	27.6%	5.64%	34.8%	4.49%	17.2%	–	–	–	–	–	–	–	–	–	–	inhibition at 10 µM (CAKI-1; CAKI-1, read-out: Growth inhibition percentage (GI %)): 29.5%; inhibition at 10 µM (HS 578T; Hs-578T): 16.7%; inhibition at 10 µM (M14; M14, read-out: Growth inhibition percentage (GI %)): 14%; inhibition at 10 µM (MCF7; MCF7, read-out: Growth inhibition percentage (GI %)): 34.7%; inhibition at 10 µM (OVCAR-4; OVCAR-4, read-out: Growth inhibition percentage (GI %)): 18.4%; inhibition at 10 µM (OVCAR-5; OVCAR-5, read-out: Growth inhibition percentage (GI %)): -17%; inhibition at 10 µM (OVCAR-8; OVCAR-8, read-out: Growth inhibition percentage (GI %)): 39.9%; inhibition at 10 µM (PC-3; PC-3, read-out: Growth inhibition percentage (GI %)): 37.9%; inhibition at 10 µM (SK-OV-3; SK-OV-3, read-out: Growth inhibition percentage (GI %)): -29%; inhibition at 10 µM (TK-10; TK-10, read-out: Growth inhibition percentage (GI %)): -45.7%; inhibition at 10 µM (HCT-116; HCT-116, read-out: Growth inhibition percentage (GI %)): 35.6%; inhibition at 10 µM (SNB-75; SNB-75, read-out: Growth inhibition percentage (GI %)): 11.2%; inhibition at 10 µM (LOX IMVI; LOX IMVI): 39.5%; inhibition at 10 µM (NCI/ADR-RES; NCI/ADR-RES): 30.9%; inhibition at 10 µM (DU-145; DU-145, read-out: Growth inhibition percentage (GI %)): 31.1%; inhibition at 10 µM (BT-549; BT-549, read-out: Growth inhibition percentage (GI %)): 11.7%; inhibition at 10 µM (T-47D): 30.9%
CN(C)c1ccc(/C=N/Nc2nc(N/N=C/c3ccc(N(C)C)cc3)nc(N3CCOCC3)n2)cc1 [compound 6g, 4-[(1e)-(2-{4-[(E)-2-{[4-(dimethylamino)phenyl]methylidene}hydrazin-1-yl]-6-(morpholin-4-yl)-1,3,5-triazin-2-yl}hydrazin-1-ylidene)methyl]-N,N-dimethylaniline]	25.1%	-2.9%	-5.52%	-3.9%	6.53%	0.65%	-0.33%	1.08%	8.7%	55.7%	4.03%	2.43%	-2.62%	45.1%	-3.79%	-10.4%	1.04%	12.3%	-9.91%	-10.2%	inhibition at 10 µM (HCT-116; [11]): 64.3%; inhibition at 10 µM (SNB-75; [12]): 12.6%; inhibition at 10 µM (LOX IMVI; [13]): 12.3%; inhibition at 10 µM (NCI/ADR-RES; [14]): 0.17%; inhibition at 10 µM (DU-145; [15]): 7.27%; inhibition at 10 µM (BT-549; [16]): -5.53%; inhibition at 10 µM (T-47D; [17]): 5.31%
Clc1cccc(/C=N/Nc2nc(N/N=C/c3cccc(Cl)c3Cl)nc(N3CCOCC3)n2)c1Cl [compound 6h, 2,4-Bis[(E)-2-[(2,3-Dichlorophenyl)methylidene]hydrazin-1-yl]-6-(morpholin-4-yl)-1,3,5-triazine]	3.4%	-6.13%	-3.7%	8.19%	14.6%	25.5%	11.9%	21.4%	12.3%	21%	-1.35%	-8.95%	-4.08%	25.1%	3.18%	-10.2%	44.6%	14.5%	-15.1%	-29.2%	inhibition at 10 µM (HCT-116; [11]): 19.3%; inhibition at 10 µM (SNB-75; [12]): -19.6%; inhibition at 10 µM (LOX IMVI; [13]): 31.6%; inhibition at 10 µM (NCI/ADR-RES; [14]): 34.2%; inhibition at 10 µM (DU-145; [15]): -2.63%; inhibition at 10 µM (BT-549; [16]): 0.16%; inhibition at 10 µM (T-47D; [17]): 44.7%
